Assay results as given in patent US20020169154A1, “Novel methods and compositions involving trk tyrosine kinase inhibitors and antineoplastic agents” (Cephalon, Inc., priority 2001, published 2002).

System: human pancreatic ductal adenocarcinoma (PDAC) xenografts (Colo-357)
Assay: Survival of nude mice with orthotopically implanted human PDAC xenografts
Type: in vivo
Details: orthotopic PDAC, female nu/nu mice, (I-a-ii) 10 mg/kg/dose s.c. BID five days a week, gemcitabine 100 mg/kg/dose i.p. twice per week, combination: both regimens; for mean survival time (days of dosing to death): vehicle 58, untreated 55 days
Description: The compound of formula (I-a-ii) was formulated at 3.44 mg/mil in a vehicle of 40% polyethylene glycol (PEG) 1000 (Spectrum, Los Angeles, Calif.), 10% povidone C30 (ISP, Boudbrook, N.J.), and 2% benzyl alcohol (Specturm, Los Angeles, Calif.) in sterile injectable water.
Gemcitabine HCl (Gemzar) was obtained from Eli Lilly and Co. (Indianapolis, Ind.) as a sterile, lyophilized powder formulated with mannitol and sodium acetate, and resuspended to a concentration of 1.0 mg/ml with 0.9% sodium chloride, pH 7.0. Solutions of gemcitabine were freshly prepared for each day of dosing and filter sterilized prior to administration.
Human pancreatic ductal adenocarcinoma (PDAC) xenografts were obtained from the left flanks of nude mice that had been injected with 2×10^6 Colo-357 human pancreatic carcinoma cells. Colo-357 human PDAC cells were obtained from the American Type Culture Collection (ATCC) and grown to subconfluency in Minimal Essential Medium supplemented with 10% fetal bovine serum and 1% penicillin/streptomycin. Cells were MAP and mycoplasma tested by a commercial laboratory (Bio Reliance Corp.) prior to use. Xenograft tumors were harvested and carefully sectioned into 2×2 mm^2 fragments in a laminar flow hood using sterile technique (PNAS 89:5645-49, 1992; Cancer Res. 55:4670-75, 1995). Netrotic areas of the tumors were removed and discarded. The 2×2 mm tumor tissue fragments were then placed in sterile, undiluted Matrigel and ice for 60 minutes prior to implantation. (Cancer Res. 55:4670-75, 1995).
At approximately 8 weeks of age female nu/nu mice were anesthetized with a mixture of ketamine/xylazine given by IM injection. Following establishment of satisfactory anesthesia, a left lateral laparotomy was performed using aseptic technique, and the spleen and pancreas exteriorized by gentle traction. Two of the 2×2 mm^2 tumor xenograft fragments prepared as described above were anchored to the posterior surface of the splenic portion of the pancreas of each mouse with a 6-0 Prolene suture (Cancer Res. 56:5713-19, 1996; J. Surg. Oncol. 40:261-265, 1989). The abdominal incision was closed with 6-0 Vicryl and the skin closed with skin staples. Mice were observed daily for any signs of infection of the incision line and, following removal of the skin staples, had abdominal palpation performed twice weekly. Establishment of the orthotopic phenotype with diffuse peritoneal spread was accomplished through three serial passes of tumor tissue.
Seven days following surgical implantation of serially passed PDAC tumor tissue, mice were randomized into five different treatment groups. Untreated mice (n=5) received no vehicle or drug treatments. […]

| SMILES | survival relative to controls or monotherapy (Kaplan-Meier-Wilcoxon), in words | mean survival time (days of dosing to death) |
| --- | --- | --- |
| Nc1ccn([C@@H]2O[C@H](CO)[C@@H](O)C2(F)F)c(=O)n1 [gemcitabine, 2′,2′-difluorodeoxycytidine] | prolonged survival relative to the administration of controls | 97 days |
| C[C@@]12OC(C[C@@]1(O)CO)n1c3ccccc3c3c4c(c5c6ccccc6n2c5c31)CNC4=O [formula (I-a-ii)] | trend toward improved overall survival relative to administration of controls, but the trend was not significant | 63 days |
